In article PMC10454375, “Cell-Impermeable Inhibitors Confirm That Intracellular Human Transglutaminase 2 Is Responsible for the Transglutaminase-Associated Cancer Phenotype” (International Journal of Molecular Sciences, 2023):
Peptide text beside a SMILES is read from it. * marks the point of attachment. X1 = C=CC(=O)NCCCCC(NC(=O)OCc1ccccc1)C(=O)N1CCN(C(=O)C(CCC(=O)*)NC(=O)c2cccc3ccccc23)CC1

Tests used:
[1] = PAMPA test; assay type: in vitro ADME; conditions: compound not detected in receptor compartment, limit of detection reported
Source text: The cell-impermeable inhibitors 17 and 18 were designed to violate virtually all of the rules for cellular permeability described by Lipinski and Veber. They were also empirically evaluated with respect to their pharmacokinetic properties, in particular to determine their cell permeability. In a PAMPA test, the −Log Pe values were very high (Table 2). […] Indeed, neither compound was even detected in the receptor compartment for the PAMPA, resulting in the lower limit of detection being reported as an approximate value.

[2] = biological target: T1, TG1 (Homo sapiens, UniProt P22735); test: TGase isozyme selectivity, TG1 with AL5 substrate; assay type: biochemical; conditions: [I]/α identical to that of the TG2 assay
T1 construct: purchased Zedira GmbH (Darmstadt, Germany)
T1 sequence (P22735 1-817): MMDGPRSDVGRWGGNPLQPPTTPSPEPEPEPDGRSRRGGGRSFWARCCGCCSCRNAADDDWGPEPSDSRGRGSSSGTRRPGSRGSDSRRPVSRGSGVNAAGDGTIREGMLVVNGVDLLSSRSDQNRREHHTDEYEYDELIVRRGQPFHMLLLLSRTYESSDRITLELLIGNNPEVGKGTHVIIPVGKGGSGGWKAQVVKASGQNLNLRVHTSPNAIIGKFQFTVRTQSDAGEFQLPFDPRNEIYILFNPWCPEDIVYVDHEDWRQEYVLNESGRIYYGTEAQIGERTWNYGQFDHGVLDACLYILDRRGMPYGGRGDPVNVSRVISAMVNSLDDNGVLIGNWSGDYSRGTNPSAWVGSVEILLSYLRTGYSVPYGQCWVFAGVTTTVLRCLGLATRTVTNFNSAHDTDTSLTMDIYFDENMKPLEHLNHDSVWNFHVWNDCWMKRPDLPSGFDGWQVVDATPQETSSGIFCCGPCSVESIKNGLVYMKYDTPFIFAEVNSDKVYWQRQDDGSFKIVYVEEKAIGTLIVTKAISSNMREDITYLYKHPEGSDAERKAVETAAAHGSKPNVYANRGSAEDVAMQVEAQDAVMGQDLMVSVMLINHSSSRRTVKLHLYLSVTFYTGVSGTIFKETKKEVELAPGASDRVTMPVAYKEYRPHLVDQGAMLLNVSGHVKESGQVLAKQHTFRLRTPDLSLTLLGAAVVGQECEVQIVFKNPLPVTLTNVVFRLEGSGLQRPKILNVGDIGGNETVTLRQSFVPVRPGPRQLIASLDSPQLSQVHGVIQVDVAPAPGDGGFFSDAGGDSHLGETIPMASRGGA
Source text: In the development of probes for TGases, isozyme selectivity is always a significant challenge. Since the catalytic machinery of the active sites of all TGases features a conserved Gly-Gln-Cys-Trp-Val sequence, selectivity for one isozyme over the others requires exploitation of slight differences in the protein substrate binding sites. In order to assess the isozyme selectivity of our cell-impermeable inhibitors, TG2 and four other therapeutically relevant TGases (Factor XIII, TG1, TG3, and TG6) were exposed to a concentration of inhibitor representing the same apparent competition with respect to the assay substrate (AL5 [38] or A101 [42, 43]). In other words, both the substrate and inhibitor concentrations were varied so that the [I]/α values were identical. […] This provides confidence that in further applications, these cell-impermeable inhibitors will selectively target TG2 over other transglutaminases.
To monitor the activity of TG3a and TG6, a FRET-quenched substrate A101 (Zedira Gmbh) was used. […] The isopeptidase activity of the respective TGase was then monitored at Ex/Em = 313/418 nm with a BioTek Synergy 4 plate reader at 25 °C. […]

[3] = Log D; assay type: physicochemical
Source text: Table 2 Representative pharmacokinetic properties for cell-impermeable inhibitors 17 and 18. | column: 17; 18 (NCEG2)

[4] = MDCK cell permeability assay; assay type: in vitro ADME; conditions: dog, without Pgp inhibitor
[5] = test system: P-gp; test: MDCK cell permeability assay; assay type: in vitro ADME; conditions: dog, without Pgp inhibitor

Row | Compound | −Log Pe [1] | inhibition of TG1 [2] | logD [3] | Papp A→B [4] [×10⁻⁶ cm/s] | Papp B→A [4] [×10⁻⁶ cm/s] | efflux ratio [5]
1 | C=CC(=O)NCCCCC(NC(=O)OCc1ccccc1)C(=O)N1CCN(C(=O)C(CCC(=O)NCC(=O)NCC(=O)NCC(=O)NC(CC(=O)O)C(=O)NC(CC(=O)O)C(=O)NC(CC(=O)O)C(=O)O)NC(=O)c2cccc3ccccc23)CC1 (stereo not drawn) [Compound 18] (X1-GGGDDD-OH; configuration not given here) | >8.79 | no detectable inhibition | < -2.63 | 0.47 | 0.56 | 1.18
2 | C=CC(=O)NCCCCC(NC(=O)OCc1ccccc1)C(=O)N1CCN(C(=O)C(CCC(=O)NCCCCCC(=O)NC(CC(=O)O)C(=O)NC(CC(=O)O)C(=O)NC(CC(=O)O)C(=O)O)NC(=O)c2cccc3ccccc23)CC1 (stereo not drawn) [Compound 17] | >9.02 | no detectable inhibition | < -2.73 | 0.31 | 0.42 | 1.39
